This data set can be described thus: method code SF-HPLC, from DOI: 10.1248/cpb.46.274.

The term logP denotes a log measure of how a compound divides between an organic and an aqueous phase. Higher therefore signals higher lipophilicity. As for `CC(=O)C=Cc1ccc(C#N)cc1`, the lipophilicity (logP) came to 1.64.
The same measure for `COc1ccc(C=CC(=O)C(F)(F)F)cc1`: 3.33.
Regarding `CC(=O)C=Cc1cccc(F)c1`, the log partition coefficient (logP) is 2.25.
`COc1cccc(/C=C/C(C)=O)c1` had a lipophilicity (logP) of 2.27.
On to `CCOc1ccc(C=CC(C)=O)cc1`, for which the logP amounted to 2.73.
For the compound `N#Cc1cccc(/C=C/C(=O)C(F)(F)F)c1`, the log partition coefficient (logP) was determined as 2.45.
The compound `CC(=O)/C=C/c1cccc(Cl)c1` showed a logP of 2.81.
The compound `CC(=O)/C=C/c1cccc(Br)c1` had a log partition coefficient (logP) of 3.02.
Take `CC(=O)/C=C/c1ccc(C(F)(F)F)cc1`: the log partition coefficient (logP) came out at 3.13.
Consider `O=C(C=Cc1ccccc1Cl)C(F)(F)F`, for which the lipophilicity (logP) stood at 3.5.
The compound `N#Cc1ccc(C=CC(=O)C(F)(F)F)cc1` returned a logP of 2.42.
`CCc1ccc(/C=C/C(C)=O)cc1` gave a lipophilicity (logP) of 3.26.
On to `COc1ccccc1C=CC(=O)C(F)(F)F`, for which the lipophilicity (logP) was 3.39.
Regarding `CC(=O)/C=C/c1ccc(Cl)cc1`, the logP was determined as 2.8.
`CC(=O)/C=C/c1ccc(N(C)C)cc1` registered a lipophilicity (logP) of 2.66.
The same measure for `CC(=O)/C=C/c1cccc(C(F)(F)F)c1`: 3.03; for `CC(=O)/C=C/c1ccccc1F`: 2.34; for `O=C(C=Cc1ccccc1)C(F)(F)F`: 3.01.
For the compound `O=C(C=Cc1ccc(Cl)cc1)C(F)(F)F`, the log partition coefficient (logP) was 3.63.
Compound `CC(=O)C=Cc1ccc(OC(C)=O)cc1` gave a logP of 1.63.
Consider `CC(=O)/C=C/c1ccccc1O`, for which the logP is 2.19.
`CC(=O)C=Cc1ccc(C)cc1`: the logP was determined as 2.65.
`COc1ccccc1/C=C/C(C)=O` returned a logP of 2.42.
Compound `COc1cccc(C=CC(=O)C(F)(F)F)c1` gave a logP of 3.05.
`CC(=O)C=Cc1cccc(C#N)c1`: the log partition coefficient (logP) was determined as 1.59.
Compound `O=C(C=Cc1cccc([N+](=O)[O-])c1)C(F)(F)F` showed a logP of 2.66.
The same measure for `O=C(C=Cc1cccc(Cl)c1)C(F)(F)F`: 3.58; for `CC(=O)C=Cc1ccc(Br)cc1`: 3.03.
The compound `CC(=O)/C=C/c1cccc([N+](=O)[O-])c1` showed a lipophilicity (logP) of 1.88.
The same measure for `CC(=O)/C=C/c1ccccc1C(F)(F)F`: 3.14; for `CC(=O)C=Cc1ccc(F)cc1`: 2.22; for `COc1ccc(/C=C/C(C)=O)cc1`: 2.25.
`CC(=O)/C=C/c1ccccc1Cl` yielded a logP of 2.85.
As to `CC(=O)/C=C/c1ccccc1C`, the lipophilicity (logP) was determined as 2.6.
In the case of `CC(=O)/C=C/c1cccc(C)c1` it was 2.68; in that of `CC(=O)/C=C/c1ccc(O)cc1`, 1.86.

The record behind these values is the SangsterLogP compilation.
